Laboratory results from US20080242546A1, “Synergistic herbicidal composition containing chloroacetanilides and picolinic acids” (Dow AgroSciences LLC, priority 2007, published 2008).

Legend:
POLCO = experiment: Field trial in field corn, early postemergence weed control, visual rating; format: in vivo, polygonum convolvulus L; conditions: early post
Description: (§1) Field trials were established to evaluate weed control with herbicides applied at an early postemergence timing in field corn. Each trial was conducted as a randomized complete block design with three replications of each treatment in plots that ranged in size from 2.5×6.5 meters to 3.0×8.0 meters. Herbicide treatments in these trials included: • acetochlor at 1680 g/ha • clopyralid+picloram at 93.5+23.5 g/ha • clopyralid+picloram+aminopyralid at 72+24+12 g/ha • acetochlor+clopyralid+picloram at 1680+93.5+23.5 g/ha • acetochlor+clopyralid+picloram+aminopyralid at 1680+72+24+12 g/ha These herbicide treatments were broadcast sprayed postemergence over 1 to 3 leaf corn and 1 to 2 leaf weeds. The acetochlor formulation being used also contained furilazole safener.
(§2) The degree of weed control was visually evaluated and recorded at 40 to 71 days after application as a percent of weed control. Percent control is the total injury to the plants due to all factors including: stunting, malformation, chlorosis, necrosis, inhibition of emergence, and other types of plant injury. The control ratings range from 0 to 100 percent, where 0 represents no injury and 100 represents complete kill.
(§3) The Colby method represents a direct approach to measuring the synergistic activity of two herbicides.

POLAV = experiment: as above; format: in vivo, polygonum aviculare; conditions: early post
Description: as §1, §2, §3

CHEAL = experiment: as above; format: in vivo, chenopodium album L; conditions: early post
Description: as §1, §2, §3

PAPRH = experiment: Field trial in oilseed rape, preemergence weed control, visual rating; format: in vivo, papaver rhoeas L; conditions: preemergence to weeds
Description: (§4) E=X+Y-(XY/100), […] Additional field trials were established to evaluate weed control with herbicides applied at an […] timing in oilseed rape, prior to any weed emergence. Each trial was conducted as a randomized complete block design with three replications of each treatment in plots that ranged in size from 2.5×5.o meters to 3.0×6.0 meters. […] The degree of weed control was visually evaluated and recorded at 55 to 68 days after application as a percent of weed control. Percent control is the total injury to the plants due to all factors including: stunting, malformation, chlorosis, necrosis, inhibition of emergence, and other types of plant injury.

VIOAR = experiment: as above; format: in vivo, viola arvensis L; conditions: preemergence to weeds
Description: as §4

GALAP = experiment: as above; format: in vivo, galium aparine L; conditions: preemergence to weeds
Description: as §4

[1] = 1680 g ai/ha, 40 to 71 days after application
[2] = 750 g ai/ha, 55 to 68 days after application

| Structure (SMILES) | percent of weed control (POLCO; [1]) [%] | control of POLCO in words (synergistic action / acceptable control) (POLCO) | percent of weed control (POLAV; [1]) [%] | control of POLAV in words (synergistic action / acceptable control) (POLAV) | control of CHEAL in words (synergistic action / acceptable control) (CHEAL) | percent of weed control (PAPRH; [2]) [%] | control of PAPRH in words (synergistic action / acceptable control) (PAPRH) | percent of weed control (VIOAR; [2]) [%] | control of VIOAR in words (synergistic action / acceptable control) (VIOAR) | percent of weed control (GALAP; [2]) [%] | control of GALAP in words (synergistic action / acceptable control) (GALAP) |
| --- | --- | --- | --- | --- | --- | --- | --- | --- | --- | --- | --- |
| CCOCN(C(=O)CCl)c1c(C)cccc1CC [acetochlor, 2-chloro-N-(ethoxymethyl)-N-(2-ethyl-6-methylphenyl)acetamide] | 52 | did not provide acceptable control | 58 | did not provide acceptable control | did not provide acceptable control |  |  |  |  |  |  |
| Cc1cccc(C)c1N(Cn1cccn1)C(=O)CCl [metazachlor, 2-chloro-N-(2,6-dimethylphenyl)-N-(1H-pyrazol-1-ylmethyl)acetamide] |  |  |  |  |  | 10 | did not provide acceptable control | 0 | did not provide acceptable control | 53 | did not provide acceptable control |
